From ChEMBL document CHEMBL1201862, “PubChem BioAssay data set” (2004)
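Dose response: 5 concentrations. Exposure: 48 h. Format: 96-well plates. Endpoint: linear interpolation; highest concentration if not reached. GI50 is the concentration that inhibits growth by half.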 Activity calls are given as the source filed them. Rule as the data show it: active = GI50 up to about 1.1 µM and inactive = higher.

Legend:
Assay in all cases: inhibition of tumour cell growth, NCI panel, 48 h
SN12C = test system: SN12C
KM12 = test system: KM12
SR = test system: SR
SNB-19 = test system: SNB-19
OVCAR-5 = test system: OVCAR-5
TK-10 = test system: TK-10
M14 = test system: M14
LOX IMVI = test system: LOX IMVI
NCI-H460 = test system: NCI-H460
UACC-257 = test system: UACC-257
EKVX = test system: EKVX
NCI-H522 = test system: NCI-H522
T47D = test system: T47D
HCT-116 = test system: HCT-116
DU-145 = test system: DU-145
CAKI-1 = test system: CAKI-1
IGROV-1 = test system: IGROV-1
MCF7 = test system: MCF7
UACC-62 = test system: UACC-62
HCT-15 = test system: HCT-15
HL-60 = test system: HL-60
SW-620 = test system: SW-620
NCI-H226 = test system: NCI-H226
SF-539 = test system: SF-539
MDA-MB-435 = test system: MDA-MB-435
786-0 = test system: 786-0
OVCAR-4 = test system: OVCAR-4
Hs-578T = test system: Hs-578T
NCI-H23 = test system: NCI-H23
SF-268 = test system: SF-268
HT-29 = test system: HT-29
K562 = test system: K562
RPMI-8226 = test system: RPMI-8226
NCI/ADR-RES = test system: NCI/ADR-RES
OVCAR-8 = test system: OVCAR-8
SK-MEL-2 = test system: SK-MEL-2
MOLT-4 = test system: MOLT-4
SF-295 = test system: SF-295
A549 = test system: A549
HCC 2998 = test system: HCC 2998
ACHN = test system: ACHN
MDA-MB-231 = test system: MDA-MB-231
SK-MEL-5 = test system: SK-MEL-5
PC-3 = test system: PC-3
BT-549 = test system: BT-549
COLO 205 = test system: COLO 205
OVCAR-3 = test system: OVCAR-3
U-251 = test system: U-251
UO-31 = test system: UO-31
SK-MEL-28 = test system: SK-MEL-28
SK-OV-3 = test system: SK-OV-3
HOP-92 = test system: HOP-92
MDA-N = test system: MDA-N

Measured: GI50

Cc1ccc(/N=N/C(=NNC(=O)c2ccc(C)cc2)c2ccc(N(C)C)cc2)cc1
28.7 µM: HCT-15
inactive: SN12C 23.2 µM | KM12 16.9 µM | SR 17.9 µM | SNB-19 24.8 µM | OVCAR-5 51.8 µM | TK-10 64.7 µM | M14 24.8 µM | LOX IMVI 33.4 µM | NCI-H460 25.3 µM | UACC-257 21.9 µM | EKVX 30.1 µM | NCI-H522 20.9 µM | T47D 71.3 µM | HCT-116 24.2 µM | DU-145 20.8 µM | CAKI-1 23 µM | IGROV-1 29.3 µM | MCF7 20 µM | UACC-62 10.8 µM | HL-60 27.5 µM | SW-620 32.2 µM | NCI-H226 23.8 µM | SF-539 43 µM | MDA-MB-435 16.6 µM | 786-0 33.3 µM | OVCAR-4 18.5 µM | Hs-578T 28.1 µM | NCI-H23 24.3 µM | SF-268 38.5 µM | HT-29 31.1 µM | K562 24.9 µM | RPMI-8226 22.3 µM | NCI/ADR-RES 41.3 µM | OVCAR-8 31.8 µM | SK-MEL-2 38.3 µM | MOLT-4 33 µM | SF-295 26.4 µM | A549 28.6 µM | HCC 2998 27.4 µM | ACHN 66.4 µM | MDA-MB-231 50.2 µM | SK-MEL-5 15.5 µM | PC-3 42.6 µM | BT-549 26.2 µM | COLO 205 12.3 µM | OVCAR-3 17.6 µM | U-251 34.4 µM | UO-31 26.1 µM | SK-MEL-28 36 µM | SK-OV-3 23.7 µM | HOP-92 28.6 µM | MDA-N 19.8 µM
